In assay [1] the target is Calcium/calmodulin-dependent protein kinase kinase 2 (Homo sapiens, UniProt Q96RR4).
The target of assay [2] is Ribosomal protein S6 kinase alpha-3 (Homo sapiens) (UniProt P51812).
Assay [3] has as its target 5'-AMP-activated protein kinase catalytic subunit alpha-2 (Homo sapiens) (UniProt P54646).
The target in assay [4] is TRAF2 and NCK-interacting protein kinase (Homo sapiens) (UniProt Q9UKE5).
Assay [5] concerns the target Calcium/calmodulin-dependent protein kinase type 1G (Homo sapiens) (UniProt Q96NX5).
The target of assay [6] is Serine/threonine-protein kinase pim-2 (Homo sapiens, UniProt Q9P1W9).
Chain of Serine/threonine-protein kinase pim-2 (Q9P1W9 whole entry, looked up): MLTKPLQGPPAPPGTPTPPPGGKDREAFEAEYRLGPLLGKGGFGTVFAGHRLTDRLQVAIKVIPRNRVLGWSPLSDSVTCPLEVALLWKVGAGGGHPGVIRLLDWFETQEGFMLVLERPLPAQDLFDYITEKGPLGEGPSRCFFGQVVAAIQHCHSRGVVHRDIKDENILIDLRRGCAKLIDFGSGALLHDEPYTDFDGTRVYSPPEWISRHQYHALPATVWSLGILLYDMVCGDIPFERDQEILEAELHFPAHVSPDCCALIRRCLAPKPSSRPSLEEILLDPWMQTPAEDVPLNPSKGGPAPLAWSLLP
In assay [7] the target is Dual specificity mitogen-activated protein kinase kinase 2 (Homo sapiens, UniProt P36507).
The target in assay [8] is T1, Calcium/calmodulin-dependent protein kinase type IV (Homo sapiens) (UniProt Q16566).
T1 sequence (whole entry): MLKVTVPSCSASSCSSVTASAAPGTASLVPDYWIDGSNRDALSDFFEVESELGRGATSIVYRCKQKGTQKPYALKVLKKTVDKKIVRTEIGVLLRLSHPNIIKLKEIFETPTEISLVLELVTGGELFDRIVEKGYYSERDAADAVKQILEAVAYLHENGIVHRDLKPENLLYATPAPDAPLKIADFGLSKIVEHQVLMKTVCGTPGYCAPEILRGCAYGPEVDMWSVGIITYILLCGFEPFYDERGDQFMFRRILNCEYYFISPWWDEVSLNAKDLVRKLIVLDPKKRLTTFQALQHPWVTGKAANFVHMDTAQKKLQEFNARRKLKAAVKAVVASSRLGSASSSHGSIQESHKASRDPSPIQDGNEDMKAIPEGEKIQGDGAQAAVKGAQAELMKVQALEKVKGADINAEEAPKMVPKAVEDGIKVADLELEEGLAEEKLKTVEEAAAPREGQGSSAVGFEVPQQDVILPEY

Assay [9] deals with Tyrosine-protein kinase JAK1 (Homo sapiens) (UniProt P23458).
The target of assay [10] is Glycogen synthase kinase-3 beta (Homo sapiens, UniProt P49841).
The target in assay [11] is Calcium/calmodulin-dependent protein kinase type II subunit delta (Homo sapiens) (UniProt Q13557).
For assay [12], the target named is T2, Serine/threonine-protein kinase PLK4 (Homo sapiens) (UniProt O00444).
T2 sequence (whole entry): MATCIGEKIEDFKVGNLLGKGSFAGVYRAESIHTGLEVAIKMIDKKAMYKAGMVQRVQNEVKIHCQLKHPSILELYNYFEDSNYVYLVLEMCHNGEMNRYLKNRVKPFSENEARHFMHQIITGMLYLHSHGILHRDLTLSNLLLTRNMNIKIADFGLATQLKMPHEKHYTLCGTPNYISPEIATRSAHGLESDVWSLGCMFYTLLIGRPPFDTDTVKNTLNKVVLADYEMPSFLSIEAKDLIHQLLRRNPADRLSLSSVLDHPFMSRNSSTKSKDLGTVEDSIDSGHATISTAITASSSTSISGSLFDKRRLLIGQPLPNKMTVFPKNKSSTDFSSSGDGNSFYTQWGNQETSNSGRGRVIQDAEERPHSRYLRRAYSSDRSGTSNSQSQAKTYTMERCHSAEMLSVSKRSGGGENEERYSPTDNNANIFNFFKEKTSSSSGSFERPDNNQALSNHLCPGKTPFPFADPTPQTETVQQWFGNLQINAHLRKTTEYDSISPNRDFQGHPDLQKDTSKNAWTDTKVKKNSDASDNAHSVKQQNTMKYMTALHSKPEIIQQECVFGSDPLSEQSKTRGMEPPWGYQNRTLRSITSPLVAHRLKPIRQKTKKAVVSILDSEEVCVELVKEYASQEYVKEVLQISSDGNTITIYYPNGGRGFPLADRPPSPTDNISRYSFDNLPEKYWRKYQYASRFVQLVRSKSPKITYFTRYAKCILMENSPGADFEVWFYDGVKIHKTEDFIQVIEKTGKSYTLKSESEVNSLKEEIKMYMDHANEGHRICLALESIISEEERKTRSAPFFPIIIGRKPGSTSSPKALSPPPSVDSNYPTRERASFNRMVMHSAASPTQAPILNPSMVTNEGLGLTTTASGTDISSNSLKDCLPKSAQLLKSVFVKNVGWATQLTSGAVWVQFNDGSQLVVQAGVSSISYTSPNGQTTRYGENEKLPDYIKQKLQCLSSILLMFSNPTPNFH

For assay [13], the target named is Casein kinase I isoform gamma-1 (Homo sapiens) (UniProt Q9HCP0).
The target in assay [14] is Dual specificity protein kinase CLK3 (Homo sapiens) (UniProt P49761).
Assay [15] concerns the target T3, Serine/threonine-protein kinase VRK1 (Homo sapiens) (UniProt Q99986).
T3 sequence (whole entry): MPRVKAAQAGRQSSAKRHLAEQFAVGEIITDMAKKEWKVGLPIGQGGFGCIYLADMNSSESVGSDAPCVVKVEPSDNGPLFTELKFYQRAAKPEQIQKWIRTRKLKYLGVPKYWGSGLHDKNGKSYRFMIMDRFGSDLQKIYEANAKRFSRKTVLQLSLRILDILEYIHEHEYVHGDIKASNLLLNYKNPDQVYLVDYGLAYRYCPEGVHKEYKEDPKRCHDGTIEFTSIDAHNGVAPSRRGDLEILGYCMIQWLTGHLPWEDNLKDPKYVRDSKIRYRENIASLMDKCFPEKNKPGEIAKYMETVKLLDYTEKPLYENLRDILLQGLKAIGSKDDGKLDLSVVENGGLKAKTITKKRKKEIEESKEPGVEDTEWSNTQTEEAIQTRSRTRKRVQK

Assay [16] concerns the target Casein kinase I isoform gamma-3 (Homo sapiens) (UniProt Q9Y6M4).
Assay [17] has as its target Casein kinase I isoform gamma-2 (Homo sapiens) (UniProt P78368).
Assay [18] deals with Mitogen-activated protein kinase 6 (Homo sapiens) (UniProt Q16659).
Assay [19] concerns the target Calcium/calmodulin-dependent protein kinase type II subunit gamma (Homo sapiens) (UniProt Q13555).

Chain of 5'-AMP-activated protein kinase catalytic subunit alpha-2 (Homo sapiens) (P54646 whole entry, looked up): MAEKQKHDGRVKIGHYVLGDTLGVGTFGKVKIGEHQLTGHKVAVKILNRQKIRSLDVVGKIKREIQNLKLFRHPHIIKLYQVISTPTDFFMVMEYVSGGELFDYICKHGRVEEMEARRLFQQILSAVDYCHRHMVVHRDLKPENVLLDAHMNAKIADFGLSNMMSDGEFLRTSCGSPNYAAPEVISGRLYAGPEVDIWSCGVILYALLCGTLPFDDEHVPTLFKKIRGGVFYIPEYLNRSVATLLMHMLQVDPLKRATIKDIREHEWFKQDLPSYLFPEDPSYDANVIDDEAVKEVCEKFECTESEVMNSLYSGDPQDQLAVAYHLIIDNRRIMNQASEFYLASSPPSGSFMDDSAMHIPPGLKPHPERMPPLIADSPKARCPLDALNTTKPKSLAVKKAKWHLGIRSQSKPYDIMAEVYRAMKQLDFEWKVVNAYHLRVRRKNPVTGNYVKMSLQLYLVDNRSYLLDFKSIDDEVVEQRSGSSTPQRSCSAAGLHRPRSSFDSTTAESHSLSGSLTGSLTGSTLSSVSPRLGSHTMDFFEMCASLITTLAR
Chain of TRAF2 and NCK-interacting protein kinase (Homo sapiens) (Q9UKE5 whole entry, looked up): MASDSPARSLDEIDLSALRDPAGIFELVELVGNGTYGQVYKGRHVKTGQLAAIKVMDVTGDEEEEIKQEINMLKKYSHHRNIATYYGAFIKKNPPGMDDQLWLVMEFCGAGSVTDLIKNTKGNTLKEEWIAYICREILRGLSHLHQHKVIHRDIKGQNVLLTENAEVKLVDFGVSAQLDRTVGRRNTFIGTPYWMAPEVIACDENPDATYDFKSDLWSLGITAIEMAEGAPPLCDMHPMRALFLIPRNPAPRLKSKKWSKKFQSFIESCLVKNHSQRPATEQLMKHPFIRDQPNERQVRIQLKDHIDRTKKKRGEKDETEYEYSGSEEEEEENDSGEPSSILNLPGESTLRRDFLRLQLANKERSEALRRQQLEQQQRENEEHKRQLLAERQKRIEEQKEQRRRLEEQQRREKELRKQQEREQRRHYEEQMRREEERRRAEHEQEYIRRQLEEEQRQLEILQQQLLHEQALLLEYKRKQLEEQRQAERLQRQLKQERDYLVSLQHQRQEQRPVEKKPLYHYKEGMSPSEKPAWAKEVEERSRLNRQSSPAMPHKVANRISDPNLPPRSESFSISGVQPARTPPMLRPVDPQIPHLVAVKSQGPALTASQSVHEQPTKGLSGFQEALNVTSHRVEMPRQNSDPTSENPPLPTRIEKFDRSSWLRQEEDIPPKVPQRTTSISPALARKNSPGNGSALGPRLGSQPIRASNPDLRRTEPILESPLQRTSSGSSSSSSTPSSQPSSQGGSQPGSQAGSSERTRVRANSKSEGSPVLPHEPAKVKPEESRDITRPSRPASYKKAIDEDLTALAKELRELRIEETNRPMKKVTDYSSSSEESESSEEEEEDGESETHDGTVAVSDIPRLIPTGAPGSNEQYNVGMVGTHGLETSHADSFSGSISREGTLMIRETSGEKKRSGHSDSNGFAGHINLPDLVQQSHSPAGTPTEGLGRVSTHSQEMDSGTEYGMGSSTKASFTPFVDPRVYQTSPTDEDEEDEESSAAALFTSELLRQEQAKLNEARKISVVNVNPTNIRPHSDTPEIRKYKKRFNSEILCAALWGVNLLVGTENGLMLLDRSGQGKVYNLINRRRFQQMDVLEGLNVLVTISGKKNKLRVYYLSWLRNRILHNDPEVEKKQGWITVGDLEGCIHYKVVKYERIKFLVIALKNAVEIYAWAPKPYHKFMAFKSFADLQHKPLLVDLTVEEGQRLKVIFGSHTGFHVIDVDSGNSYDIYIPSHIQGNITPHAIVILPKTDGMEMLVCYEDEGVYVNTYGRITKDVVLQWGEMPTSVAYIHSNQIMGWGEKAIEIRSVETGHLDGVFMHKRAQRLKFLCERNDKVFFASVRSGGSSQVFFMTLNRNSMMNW
Chain of Casein kinase I isoform gamma-2 (Homo sapiens) (P78368 whole entry, looked up, canonical isoform): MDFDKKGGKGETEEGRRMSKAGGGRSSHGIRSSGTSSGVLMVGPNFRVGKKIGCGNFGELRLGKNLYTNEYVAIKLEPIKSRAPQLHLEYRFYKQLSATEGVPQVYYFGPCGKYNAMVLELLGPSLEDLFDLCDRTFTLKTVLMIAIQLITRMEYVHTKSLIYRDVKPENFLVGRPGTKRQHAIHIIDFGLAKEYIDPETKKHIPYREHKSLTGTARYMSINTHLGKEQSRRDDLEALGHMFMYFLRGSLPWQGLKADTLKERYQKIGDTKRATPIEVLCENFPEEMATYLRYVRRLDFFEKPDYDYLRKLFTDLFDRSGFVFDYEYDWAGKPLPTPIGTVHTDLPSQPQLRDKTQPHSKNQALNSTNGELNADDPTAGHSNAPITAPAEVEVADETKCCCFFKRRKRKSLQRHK
Chain of Calcium/calmodulin-dependent protein kinase type 1G (Homo sapiens) (Q96NX5 whole entry): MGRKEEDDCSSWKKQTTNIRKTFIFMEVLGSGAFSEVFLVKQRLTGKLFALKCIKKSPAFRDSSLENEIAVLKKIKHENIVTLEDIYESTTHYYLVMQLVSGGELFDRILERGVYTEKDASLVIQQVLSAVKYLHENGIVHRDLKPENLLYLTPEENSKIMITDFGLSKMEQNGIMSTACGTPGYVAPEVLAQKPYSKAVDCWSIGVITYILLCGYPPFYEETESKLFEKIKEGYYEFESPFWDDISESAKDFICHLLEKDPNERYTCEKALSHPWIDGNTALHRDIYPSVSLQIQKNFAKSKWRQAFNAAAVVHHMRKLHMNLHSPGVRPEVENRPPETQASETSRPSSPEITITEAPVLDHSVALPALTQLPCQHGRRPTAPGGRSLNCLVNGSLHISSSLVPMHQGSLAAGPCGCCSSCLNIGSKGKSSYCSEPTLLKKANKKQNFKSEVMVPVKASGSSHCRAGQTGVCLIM
Chain of Casein kinase I isoform gamma-3 (Homo sapiens) (Q9Y6M4 whole entry, looked up, canonical isoform): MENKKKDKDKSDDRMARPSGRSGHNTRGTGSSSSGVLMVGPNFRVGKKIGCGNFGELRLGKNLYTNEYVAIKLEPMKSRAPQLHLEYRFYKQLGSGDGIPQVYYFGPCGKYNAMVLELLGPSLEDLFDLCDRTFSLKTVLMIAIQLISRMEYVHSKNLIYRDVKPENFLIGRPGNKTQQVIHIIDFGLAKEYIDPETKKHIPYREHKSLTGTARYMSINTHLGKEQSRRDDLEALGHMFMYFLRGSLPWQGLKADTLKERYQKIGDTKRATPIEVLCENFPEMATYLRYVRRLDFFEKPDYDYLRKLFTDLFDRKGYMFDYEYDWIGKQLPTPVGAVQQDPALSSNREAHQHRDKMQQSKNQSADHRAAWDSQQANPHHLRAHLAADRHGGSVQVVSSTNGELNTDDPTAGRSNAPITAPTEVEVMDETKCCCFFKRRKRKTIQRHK
Chain of Ribosomal protein S6 kinase alpha-3 (Homo sapiens) (P51812 whole entry): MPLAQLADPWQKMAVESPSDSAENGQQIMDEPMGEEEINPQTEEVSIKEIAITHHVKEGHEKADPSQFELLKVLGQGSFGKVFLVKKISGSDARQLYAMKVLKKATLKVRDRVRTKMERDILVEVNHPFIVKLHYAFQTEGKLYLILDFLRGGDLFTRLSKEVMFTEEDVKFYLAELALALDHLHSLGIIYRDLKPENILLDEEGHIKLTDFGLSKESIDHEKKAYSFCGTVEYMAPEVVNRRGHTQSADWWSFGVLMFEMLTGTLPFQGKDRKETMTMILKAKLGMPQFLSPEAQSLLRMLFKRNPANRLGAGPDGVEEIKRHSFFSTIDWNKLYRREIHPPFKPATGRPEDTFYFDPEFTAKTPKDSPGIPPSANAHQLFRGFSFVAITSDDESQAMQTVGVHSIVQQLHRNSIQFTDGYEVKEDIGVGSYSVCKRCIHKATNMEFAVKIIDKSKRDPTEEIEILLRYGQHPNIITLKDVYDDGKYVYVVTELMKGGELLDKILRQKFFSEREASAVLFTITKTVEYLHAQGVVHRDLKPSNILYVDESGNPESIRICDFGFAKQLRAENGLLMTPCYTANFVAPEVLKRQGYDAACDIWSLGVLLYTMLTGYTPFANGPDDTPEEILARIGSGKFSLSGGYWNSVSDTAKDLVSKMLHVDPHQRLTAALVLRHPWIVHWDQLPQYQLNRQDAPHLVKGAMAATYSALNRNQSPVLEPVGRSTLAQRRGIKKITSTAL
Chain of Calcium/calmodulin-dependent protein kinase type II subunit gamma (Homo sapiens) (Q13555 whole entry): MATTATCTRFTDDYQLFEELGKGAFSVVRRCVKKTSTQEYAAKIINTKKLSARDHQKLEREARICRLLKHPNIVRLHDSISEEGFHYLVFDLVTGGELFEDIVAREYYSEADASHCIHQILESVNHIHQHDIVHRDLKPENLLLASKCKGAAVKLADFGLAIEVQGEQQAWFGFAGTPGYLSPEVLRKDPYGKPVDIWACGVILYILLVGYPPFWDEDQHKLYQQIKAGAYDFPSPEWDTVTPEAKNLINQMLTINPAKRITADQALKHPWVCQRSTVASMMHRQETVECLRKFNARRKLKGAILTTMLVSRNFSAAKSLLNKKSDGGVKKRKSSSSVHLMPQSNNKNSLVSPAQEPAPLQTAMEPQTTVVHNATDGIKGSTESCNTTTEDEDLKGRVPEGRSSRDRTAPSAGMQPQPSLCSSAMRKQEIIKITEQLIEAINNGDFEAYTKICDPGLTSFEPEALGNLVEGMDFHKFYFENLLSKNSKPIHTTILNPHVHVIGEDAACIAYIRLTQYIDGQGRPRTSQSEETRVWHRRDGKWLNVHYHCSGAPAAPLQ

The term ΔTm denotes the change in melting temperature against a reference sample. Turning to `O=c1c(-c2ccc(F)cc2)c(-c2ccncc2)[nH]n1-c1ccc(Cl)cc1`, the ΔTm in assay [1] is 0.2 °C; in [2], 1.2 °C; in assay [3] it was 0.2 °C; in assay [4] it was -0.2 °C; in assay [5], 1.3 °C; in assay [6], 0.2 °C. Moreover, the ΔTm in assay [7] came out at 1.9 °C; in assay [8] it was 0.4 °C; in assay [9], 0.3 °C; in assay [10], 1.9 °C; in assay [11] it was 0.1 °C; in assay [12] it was 1 °C. For the same molecule, the ΔTm in assay [13] was 0.5 °C; in [14], 0.3 °C; in [15] it was 0.8 °C; in [16] it was 0.5 °C; in assay [17], 0.7 °C; in [18], 0.7 °C. The ΔTm in [19] came to 0 °C.

As for `COc1cc2ncnc(Nc3ccc(F)c(Cl)c3)c2cc1OCCCN1CCOCC1`, the ΔTm was 0.7 °C in [1]; 1.3 °C in assay [2]; -0.3 °C in assay [3]; -1 °C in assay [4]; 1 °C in [5]; 0.6 °C in assay [6]. Further, the ΔTm in [7] stood at 0.2 °C; in assay [8], 0.6 °C; in assay [9] it was 1.2 °C; in [10] it was 0.9 °C; in assay [11] it was 0.1 °C; in assay [12], 0 °C. Moreover, the ΔTm is 0.5 °C in [13]; 0.8 °C in assay [14]; 0.5 °C in assay [15]; 0.3 °C in assay [16]; -0.2 °C in assay [17]; 0.8 °C in assay [18]. In addition, the ΔTm in assay [19] was determined as 0.4 °C.

For `Cn1cc(/C=C2/C(=O)Nc3ccc(S(N)(=O)=O)cc32)c2ccccc21`, the ΔTm in [1] was 3.5 °C; in assay [2], 7.8 °C; in assay [3], 8.3 °C; in [4], 1.3 °C; in [5], 0.5 °C; in assay [6], 8.2 °C. The ΔTm in assay [7] turned out to be 1.1 °C; in assay [8] it was 1.1 °C; in [9], 4.3 °C; in [10], 11.6 °C; in assay [11] it was 2.5 °C; in [12] it was 6.2 °C. For the same molecule, the thermal shift (ΔTm) is -0.9 °C in [13]; 3.2 °C in [14]; 1.6 °C in assay [15]; 0.2 °C in assay [16]; 0.5 °C in [17]; 5.5 °C in [18]. For the same molecule, the ΔTm in assay [19] was 0.5 °C.

On to `CN1CCC(Nc2ncc3ncnc(Nc4ccc(F)c(Cl)c4)c3n2)CC1` [FALNIDAMOL], for which the ΔTm in [1] was -0.1 °C; in assay [3] it was 0.1 °C; in assay [5], 0.5 °C; in [6], 0.1 °C; in assay [7], 0.9 °C; in assay [8], 0.1 °C. Further, the ΔTm in assay [9] stood at 0.5 °C; in assay [10] it was 1.7 °C; in assay [11] it was 0.5 °C; in assay [12] it was 0.3 °C; in assay [13], 0.4 °C; in assay [14] it was 2.7 °C. For the same molecule, the ΔTm in assay [16] is 0 °C; in [17], -0.2 °C; in assay [18] it was 0 °C; in assay [19], 1.4 °C.

For `Cc1ccc(NC(=O)c2ccc(CN3CCN(C)CC3)cc2)cc1Nc1nccc(-c2cccnc2)n1`, the ΔTm was 2.8 °C in assay [1]; 2.1 °C in assay [2]; 2.6 °C in [3]; 0 °C in [4]; 0.1 °C in assay [5]; 0.6 °C in assay [6]. The ΔTm in assay [7] was 0.3 °C; in [8], -0.5 °C; in [9], 0.1 °C; in assay [11] it was 0.3 °C; in assay [12] it was 0.2 °C; in assay [13], 0.5 °C. For the same molecule, the ΔTm was 0.4 °C in [15]; 0.3 °C in assay [16]; 0.8 °C in assay [17]; 0.5 °C in assay [18]; 0.8 °C in assay [19].

Consider `CCN(CC)CCNC(=O)c1c(C)[nH]c(/C=C2\C(=O)Nc3ccc(F)cc32)c1C`, for which the ΔTm in [1] was found to be 6.8 °C; in assay [3] it was 7.4 °C; in assay [4] it was 0.7 °C; in [6], 0 °C; in [7], 2.2 °C; in assay [8] it was 6 °C. The ΔTm in assay [9] was found to be 5.5 °C; in assay [10], 12.1 °C; in assay [11], 2.3 °C; in assay [12] it was 1.6 °C; in assay [14], 2.1 °C; in [15] it was 6.8 °C. For the same molecule, in assay [19], the thermal shift (ΔTm) was 5.2 °C.

With `Cc1nc(Nc2ncc(C(=O)Nc3c(C)cccc3Cl)s2)cc(N2CCN(CCO)CC2)n1`, the ΔTm in assay [1] is 0.6 °C; in [2] it was 0.9 °C; in [3] it was 0.2 °C; in assay [5] it was 0.5 °C; in assay [6] it was 0 °C; in [7] it was -0.2 °C. The ΔTm was found to be 0.2 °C in assay [8]; 3.8 °C in [9]; 1.9 °C in assay [10]; 0 °C in assay [11]; 2.5 °C in assay [12]; 0.3 °C in assay [13]. For the same molecule, the ΔTm is 4.1 °C in assay [14]; 1.2 °C in assay [16]; 0.2 °C in assay [17]; 0.9 °C in assay [18]; -0.3 °C in assay [19].

In the case of `Clc1ccc(Nc2nnc(Cc3ccncc3)c3ccccc23)cc1`, the ΔTm in [1] is 0.5 °C; in assay [2], -0.4 °C; in [3] it was -0.1 °C; in [5], 0.5 °C; in [6], -0.3 °C; in assay [7], 0.5 °C. The ΔTm in assay [8] is 1.9 °C; in assay [9], 1.3 °C; in [10], 0.3 °C; in [11], -0.4 °C; in [12], 0.4 °C; in assay [13], -0.2 °C. In addition, the thermal shift (ΔTm) in assay [14] is 1.1 °C; in [16], -0.2 °C; in assay [17] it was 0 °C; in assay [18], 1.3 °C; in assay [19] it was -0.4 °C.

The values are drawn from ChEMBL document CHEMBL1145498, “A systematic interaction map of validated kinase inhibitors with Ser/Thr kinases” (Proc Natl Acad Sci U S A, 2007).
